Measurements published in patent EP0048159A2, “Novel carboxyalkyl peptides and thioethers and ethers of peptides as antihypertensive agents” (UNIVERSITY OF MIAMI, priority 1980, dated 1982).
pIC50: −log10 of the molar value.

What was measured:
Human plasma ACE = target: T1, Human plasma ACE (Homo sapiens, UniProt P12821); test: Inhibitory potency in vitro: ACE assay with [3H]hippuryl-His-Leu substrate; assay type: biochemical; settings: hippuryl-His-Leu 1 x 10^-4 M, 0.05 M Hepes buffer pH 8.0, 15 minutes at 37°C, read-out: I50
T1 construct: Human plasma ACE was assayed in 0.05 M Hepes buffer, pH 8.0; from tissue; host or cells: human plasma
T1 sequence (P12821 30-1232 limits assumed): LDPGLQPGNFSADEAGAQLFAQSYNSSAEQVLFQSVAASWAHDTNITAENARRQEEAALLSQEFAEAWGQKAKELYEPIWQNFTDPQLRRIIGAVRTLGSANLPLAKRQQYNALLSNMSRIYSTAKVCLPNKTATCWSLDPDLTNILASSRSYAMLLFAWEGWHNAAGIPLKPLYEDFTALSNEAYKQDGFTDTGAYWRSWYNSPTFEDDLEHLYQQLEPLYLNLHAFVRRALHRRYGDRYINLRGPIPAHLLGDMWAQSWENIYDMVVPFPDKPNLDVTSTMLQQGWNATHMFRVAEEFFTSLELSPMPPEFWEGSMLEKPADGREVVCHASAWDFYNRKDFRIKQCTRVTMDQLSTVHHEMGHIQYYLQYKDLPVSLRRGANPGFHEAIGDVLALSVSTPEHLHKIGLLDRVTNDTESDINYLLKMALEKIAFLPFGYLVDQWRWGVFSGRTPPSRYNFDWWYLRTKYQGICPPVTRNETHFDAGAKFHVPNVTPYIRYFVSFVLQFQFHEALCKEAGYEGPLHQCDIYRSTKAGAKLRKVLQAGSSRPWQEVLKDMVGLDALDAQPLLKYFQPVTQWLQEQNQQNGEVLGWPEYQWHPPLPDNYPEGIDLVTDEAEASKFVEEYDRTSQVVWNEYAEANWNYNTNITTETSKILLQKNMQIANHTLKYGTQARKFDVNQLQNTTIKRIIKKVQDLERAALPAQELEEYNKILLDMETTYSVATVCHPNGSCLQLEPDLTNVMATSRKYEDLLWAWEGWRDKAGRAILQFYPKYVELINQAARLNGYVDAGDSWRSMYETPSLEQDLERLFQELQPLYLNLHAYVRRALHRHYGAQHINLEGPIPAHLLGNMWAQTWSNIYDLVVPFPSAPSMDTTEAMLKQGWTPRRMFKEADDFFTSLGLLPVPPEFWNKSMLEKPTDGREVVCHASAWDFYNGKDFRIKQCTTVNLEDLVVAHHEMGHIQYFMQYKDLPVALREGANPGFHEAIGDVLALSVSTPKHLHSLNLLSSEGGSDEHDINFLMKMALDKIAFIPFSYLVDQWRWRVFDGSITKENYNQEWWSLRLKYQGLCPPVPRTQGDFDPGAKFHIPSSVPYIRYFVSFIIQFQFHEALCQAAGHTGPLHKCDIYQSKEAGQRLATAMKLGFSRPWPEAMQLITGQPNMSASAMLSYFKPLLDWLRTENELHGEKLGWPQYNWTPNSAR
Procedure: The inhibitory potency of several compounds in vitro was measured in the following assay. Human plasma ACE was assayed in 0.05 M Hepes buffer, pH 8.0 containing 0.1 M NaCl and 0.75 M Na2SO4. The substrate employed was hippuryl-His-Leu at a final concentration-of 1 x 10^-4 M, (Km = 2 x 10^-4 M), together with about 130,000 cpm/50 µl of [^3Hlhippuryl-His-Leu (25 Ci/mmole). Enzyme was diluted in the above buffer such that 40 ul of buffered enzyme was capable of hydrolyzing 13% of substrate in a 15 minute incubation at 37°C. To initiate the assay, 40 µl of enzyme and 10 µl of buffer or inhibitor dissolved in buffer were preincubated for two minutes at 37°C. Substrate, 50 µl, was then added to initiate reaction and the solution was incubated for 15 minutes at 37°C. To terminate the reaction, 1 ml of 0:1 M HC1 was added, following which 1 ml of ethyl acetate was added. The mixture was
An aliquot, 500 ul. of the ethyl acetate layer was transferred to a liquid scintillation vial containing 10 ml of Riafluor, trademark New England Nuclear Corporation, Boston, Massachusetts. For determination of I50 values, enzyme activity in the presence of inhibitor at a series of different concentrations was compared to activity in the absence of inhibitor. A plot of log inhibitor concentration versus percent inhibition yielded the I50 value; the concentration of inhibitor required to reduce enzymic activity by 50%.

Rats = test: Intravenous effectiveness: blood pressure response to angiotensin I in anesthetized rats; assay type: in vivo; settings: 20 µmole/kg intravenously
Procedure: Rats (190-290 g body weight) were fasted overnight and then anesthetized with intraperitoneal pentobarbital, 50-60 mg/kg. Tracheostomy was performed and the animals were ventilated mechanically. A cannula was inserted into a femoral vein for injection of angiotensin I, and a second cannula was inserted into a common carotid artery for direct measurement of arterial blood pressure. Heparin, 1,000 units, was injected via the femoral vein to prevent coagulation. Blood pressure was measured with a pressure transducer connected to a polygraph. The rats were injected with […] of angiotensin I in 20 pl of 0.9 g % NaCl; an amount of angiotensin I sufficient to raise mean arterial blood pressure by approximately 40 mm Hg. After the responsiveness of a given rat to angiotensin I was established, the named compound at 20 µmole/kg (drug dissolved in 0.15 ml of H20 plus 10 µl of 1 N NaHC03), was given intravenously. At timed intervals, the effects of 400 ng/kg of angiotensin I on mean arterial blood pressure were tested.

[1] = Loss of activity of aqueous solution on standing under ambient conditions; assay type: physicochemical; settings: fresh aqueous solution, 1 mg per ml, pH of about 8, standing for as little as 30 minutes
From the text: In vitro study of the mechanism by which SQ14225 and its analogs act to inhibit ACE has been somewhat hampered by the instability of these molecules under ambient conditions.

Row | Compound | pIC50 (Human plasma ACE) | also measured
1 | CC(SC[C@@H](C)C(=O)N1CCC[C@H]1C(=O)O)C(=O)O (stereo partly drawn) [N-[3-(1-carboxyethylthio)-2-D-methylpropanoyl]-L-proline] | 5.82 | Blood Pressure Reponse to 400 ng/kg of Angiotensin I (% of Control) (Rats; 8 minutes after IV administration): 62.5 % of Control; Blood Pressure Reponse to 400 ng/kg of Angiotensin I (% of Control) (Rats; 15 minutes after IV administration): 37.5 % of Control; Blood Pressure Reponse to 400 ng/kg of Angiotensin I (% of Control) (Rats; 21 minutes after IV administration): 37.5 % of Control; Blood Pressure Reponse to 400 ng/kg of Angiotensin I (% of Control) (Rats; +2 minutes after IV administration): 67.5 % of Control
2 | CC(N[C@@H](C)C(=O)N1CCC[C@H]1C(=O)O)C(=O)O (stereo partly drawn) [N-(1-carboxyethyl)-L-alanyl-L-proline, reference compound] | 8.10 | –
3 | CCOC(=O)C(C)N[C@@H](C)C(=O)N1CCC[C@H]1C(=O)O (stereo partly drawn) [N-(1-ethoxycarbonylethyl)-L-alanyl-L-proline] | 7.22 | –
4 | C[C@H](CS)C(=O)N1CCC[C@H]1C(=O)O [SQ14225] | – | activity of aqueous solution upon standing [1]: substantially less active
5 | CC(SC(C)C(=O)N1CCC[C@H]1C(=O)O)C(=O)O (stereo partly drawn) [N-[2-(1-carboxyethylthio)-propanoyl]-L-proline] | 6.40 | –
6 | CC(O)CC(SC(C)C(=O)N1CCC[C@H]1C(=O)O)C(=O)O (stereo partly drawn) [N-[2-(1-carboxy-3-hydroxy-butylthio)-propanoyl]-L-proline] | 7.52 | –
7 | CC1CC(SC(C)C(=O)N2CCC[C@H]2C(=O)O)C(=O)O1 (stereo partly drawn) [N-[2-(tetrahydro-5-methyl-2-furanone-3-thio)-propanoyl]-L-proline] | 6.89 | –
